Measured values published in US20230102554A1 (GB002, INC., priority 2019, published 2023).

Assays:
[1] = molecular target: T1, Human PDGFRα, cytoplasmic domain (GST-PDGFRα) (Homo sapiens, UniProt P16234); assay: Human PDGFRα biochemical inhibition assay (off-chip Mobility Shift Assay)
T1 construct: made in house

[2] = molecular target: T2, Human PDGFRβ, cytoplasmic domain (GST-PDGFRβ) (Homo sapiens, UniProt P09619); assay: Human PDGFRβ biochemical inhibition assay (off-chip Mobility Shift Assay)
T2 construct: made in house
T2 sequence (P09619 with tags, fused parts or gaps): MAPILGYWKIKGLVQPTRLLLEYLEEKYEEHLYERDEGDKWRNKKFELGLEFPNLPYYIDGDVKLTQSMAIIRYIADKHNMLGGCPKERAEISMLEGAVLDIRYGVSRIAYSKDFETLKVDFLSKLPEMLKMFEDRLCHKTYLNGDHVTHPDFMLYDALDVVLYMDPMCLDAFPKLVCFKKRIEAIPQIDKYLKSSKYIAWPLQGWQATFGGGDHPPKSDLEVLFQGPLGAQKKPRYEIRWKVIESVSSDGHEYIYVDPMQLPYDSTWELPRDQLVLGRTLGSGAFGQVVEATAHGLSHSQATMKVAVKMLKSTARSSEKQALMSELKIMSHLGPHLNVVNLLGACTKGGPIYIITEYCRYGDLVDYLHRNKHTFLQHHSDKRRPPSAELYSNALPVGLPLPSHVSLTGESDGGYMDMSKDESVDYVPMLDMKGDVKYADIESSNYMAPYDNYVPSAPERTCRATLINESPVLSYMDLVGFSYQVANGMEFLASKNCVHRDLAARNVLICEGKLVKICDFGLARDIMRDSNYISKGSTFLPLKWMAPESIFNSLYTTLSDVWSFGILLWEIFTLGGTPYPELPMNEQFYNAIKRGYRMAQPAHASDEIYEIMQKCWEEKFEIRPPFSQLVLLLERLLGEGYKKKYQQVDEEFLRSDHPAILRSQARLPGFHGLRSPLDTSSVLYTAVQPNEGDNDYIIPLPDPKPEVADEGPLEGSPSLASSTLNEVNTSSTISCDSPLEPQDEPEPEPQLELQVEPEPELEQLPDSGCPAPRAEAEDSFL
In short: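 GST-tagged cytoplasmic domain (aa 557-1106) from baculovirus was incubated 1 h at room temperature with compound, CSKtide, ATP at Km and Mg²⁺ in HEPES buffer, pH 7.5. Phosphorylated and unphosphorylated peptide were separated by off-chip mobility shift, and the product ratio P/(P+S) gave percent inhibition.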

T1 sequence (P16234 550-1089 T674I): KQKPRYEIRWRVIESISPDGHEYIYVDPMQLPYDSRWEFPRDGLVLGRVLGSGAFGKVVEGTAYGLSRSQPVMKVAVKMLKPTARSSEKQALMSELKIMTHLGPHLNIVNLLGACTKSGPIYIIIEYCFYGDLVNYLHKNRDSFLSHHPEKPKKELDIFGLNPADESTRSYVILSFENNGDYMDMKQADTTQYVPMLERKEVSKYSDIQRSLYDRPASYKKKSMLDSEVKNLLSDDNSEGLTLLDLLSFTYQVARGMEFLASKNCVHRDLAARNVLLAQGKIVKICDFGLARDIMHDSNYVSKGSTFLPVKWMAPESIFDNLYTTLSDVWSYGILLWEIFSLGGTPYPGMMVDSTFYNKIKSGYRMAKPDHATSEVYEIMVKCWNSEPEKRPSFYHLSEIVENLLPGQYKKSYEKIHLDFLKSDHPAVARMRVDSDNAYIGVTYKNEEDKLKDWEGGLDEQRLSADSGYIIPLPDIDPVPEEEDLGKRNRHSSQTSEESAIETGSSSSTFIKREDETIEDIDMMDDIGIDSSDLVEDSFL

Row | SMILES | IC50 [1] | IC50 [2]
1 | COc1ncc(C(=O)Nc2cccc([C@H](C)Nc3cnc4cnn(C)c4n3)c2)cc1Cl [Compound 187, (S)-5-chloro-6-methoxy-N-(3-(1-((1-methyl-1H-pyrazolo[3,4-b]pyrazin-6-yl)amino)ethyl)phenyl)nicotinamide] | < 300 nM | < 300 nM
2 | CCn1cc2ncc(N[C@@H](C)c3cc(NC(=O)c4ccc(N5CCN(C)CC5)c(C(F)(F)F)c4)ccc3F)nc2n1 [Compound 433, (S)-N-(3-(1-((2-ethyl-2H-pyrazolo[3,4-b]pyrazin-6-yl)amino)ethyl)-4-fluorophenyl)-4-(4-methylpiperazin-1-yl)-3-(trifluoromethyl)benzamide] | < 300 nM | < 300 nM
3 | Cc1cncc(C(=O)Nc2cccc([C@H](C)Nc3cnc4cn(CCN5CCOCC5)nc4n3)c2)c1 [Compound 278, (S)-5-methyl-N-(3-(1-((2-(2-morpholinoethyl)-2H-pyrazolo[3,4-b]pyrazin-6-yl)amino)ethyl)phenyl) nicotinamide] | 300 to 1000 nM | ≥ 1000 nM
4 | CCn1ncc2ncc(N[C@@H](C)c3cccc(NC(=O)c4cncc(C)c4)c3)nc21 [Compound 176, (S)-N-(3-(1-((1-ethyl-1H-pyrazolo[3,4-b]pyrazin-6-yl)amino)ethyl)phenyl)-5-methylnicotinamide] | < 300 nM | < 300 nM
5 | C[C@H](Nc1cnc2cnn(C)c2n1)c1cccc(NC(=O)c2ccc3ncn(C)c3c2)c1 [Compound 73, (S)-1-methyl-N-(3-(1-((1-methyl-1H-pyrazolo[3,4-b]pyrazin-6-yl)amino)ethyl)phenyl)-1H-benzo[d]imidazole-6-carboxamide] | < 300 nM | < 300 nM
6 | C[C@H](Nc1cnc2cnn(C)c2n1)c1cccc(NC(=O)c2cnc3ncn(C)c3c2)c1 [Compound 77, (S)-1-methyl-N-(3-(1-((1-methyl-1H-pyrazolo[3,4-b]pyrazin-6-yl)amino)ethyl)phenyl)-1H-imidazo[4,5-b] pyridine-6-carboxamide] | < 300 nM | 300 to 1000 nM
7 | C[C@H](Nc1cnc2cnn(C)c2n1)c1cccc(NC(=O)c2ccc(S(C)(=O)=O)cc2)c1 [Compound 220, (S)-N-(3-(1-((1-methyl-1H-pyrazolo[3,4-b]pyrazin-6-yl)amino)ethyl)phenyl)-4-(methylsulfonyl)benzamide] | < 300 nM | 300 to 1000 nM
8 | CCn1cc2ncc(N[C@@H](C)c3cccc(NC(=O)c4ccc(CN5CCN(C)CC5)c(C5CC5)c4)c3)nc2n1 [Compound 502, (S)-3-cyclopropyl-N-(3-(1-((2-ethyl-2H-pyrazolo[3,4-b]pyrazin-6-yl)amino)ethyl)phenyl)-4-((4-methylpiperazin-1-yl)methyl)benzamide] | < 300 nM | < 300 nM
9 | C[C@H](Nc1cnc2cnn(C)c2n1)c1cccc(NC(=O)c2ccc(NC3CC3)nc2)c1 [Compound 121, (S)-6-(cyclopropylamino)-N-(3-(1-((1-methyl-1H-pyrazolo[3,4-6]pyrazin-6-yl)amino)ethyl)phenyl)nicotinamide] | < 300 nM | < 300 nM
10 | Cc1cncc(C(=O)Nc2cccc([C@H](C)Nc3cnc4cnn(-c5cnn(C)c5)c4n3)c2)c1 [Compound 186, (S)-5-methyl-N-(3-(1-((1-(1-methyl-1H-pyrazol-4-yl)-1H-pyrazolo[3,4-b]pyrazin-6-yl)amino)ethyl)phenyl) nicotinamide] | < 300 nM | < 300 nM
11 | C[C@H](Nc1cnc2cnn(C)c2n1)c1cccc(NC(=O)c2ccc3ccn(C)c3c2)c1 [Compound 50, (S)-1-methyl-N-(3-(1-((1-methyl-1H-pyrazolo[3,4-b]pyrazin-6-yl)amino)ethyl)phenyl)-1H-indole-6-carboxamide] | < 300 nM | < 300 nM
12 | CCn1cc2ncc(N[C@@H](C)c3cccc(NC(=O)c4cnc(C)s4)c3)nc2n1 [Compound 294, (S)-N-(3-(1-((2-ethyl-2H-pyrazolo[3,4-b]pyrazin-6-yl)amino)ethyl)phenyl)-2-methylthiazole-5-carboxamide] | 300 to 1000 nM | 300 to 1000 nM
13 | Cc1cncc(C(=O)Nc2cccc([C@H](C)Nc3cnc4cnn(C5CCC5)c4n3)c2)c1 [Compound 178, (S)-N-(3-(1-((1-cyclobutyl-1H-pyrazolo[3,4-b]pyrazin-6-yl)amino)ethyl)phenyl)-5-methylnicotinamide] | < 300 nM | < 300 nM
14 | CCn1cc2ncc(N[C@@H](C)c3cc(NC(=O)c4cnc5c(c4)CCCO5)ccc3F)nc2n1 [Compound 59, (S)-N-(3-(1-((2-ethyl-2H-pyrazolo[3,4-b]pyrazin-6-yl)amino)ethyl)-4-fluorophenyl)-3,4-dihydro-2H-pyrano[2,3-b] pyridine-6-carboxamide] | < 300 nM | < 300 nM
15 | CCn1cc2ncc(N[C@@H](C)c3cccc(NC(=O)c4ccc(C(=O)N5CCN(C)CC5)c(Cl)c4)c3)nc2n1 [Compound 466, (S)-3-chloro-N-(3-(1-((2-ethyl-2H-pyrazolo[3,4-b]pyrazin-6-yl)amino)ethyl)phenyl)-4-(4-methylpiperazine-1-carbonyl) benzamide] | < 300 nM | 300 to 1000 nM
16 | CCn1cc2ncc(N[C@@H](C)c3cc(NC(=O)c4ccc(CN5CCN(C)CC5)c(C(F)(F)F)c4)ccc3F)nc2n1 [Compound 444, (S)-N-(3-(1-((2-ethyl-2H-pyrazolo[3,4-b]pyrazin-6-yl)amino)ethyl)-4-fluorophenyl)-4-((4-methylpiperazin-1-yl)methyl)-3-(trifluoromethyl) benzamide] | < 300 nM | < 300 nM
17 | CCn1cc2ncc(N[C@@H](C)c3cccc(NC(=O)c4ccc(N5CCOCC5)c(F)c4)c3)nc2n1 [Compound 366, (S)-N-(3-(1-((2-ethyl-2H-pyrazolo[3,4-b]pyrazin-6-yl)amino)ethyl)phenyl)-3-fluoro-4-morpholinobenzamide] | < 300 nM | < 300 nM
18 | CCn1cc2ncc(N[C@@H](C)c3cccc(NC(=O)c4ccn(C(C)C)n4)c3)nc2n1 [Compound 305, (S)-N-(3-(1-((2-ethyl-2H-pyrazolo[3,4-b]pyrazin-6-yl)amino)ethyl)phenyl)-1-isopropyl-1H-pyrazole-3-carboxamide] | < 300 nM | 300 to 1000 nM

Now from value to molecule:

Row | IC50 [1] | IC50 [2] | SMILES
19 | < 300 nM | ≥ 1000 nM | CCn1cc2ncc(N[C@@H](C)c3cccc(NC(=O)Cc4ccc(F)cn4)c3)nc2n1 [Compound 647, (S)-N-(3-(1-((2-ethyl-2H-pyrazolo[3,4-b]pyrazin-6-yl)amino)ethyl)phenyl)-2-(5-fluoropyridin-2-yl)acetamide]
20 | 300 to 1000 nM | ≥ 1000 nM | CCn1cc2ncc(N[C@@H](C)c3cccc(NC(=O)Cc4cccnc4)c3)nc2n1 [Compound 624, (S)-N-(3-(1-((2-ethyl-2H-pyrazolo[3,4-b]pyrazin-6-yl)amino)ethyl)phenyl)-2-(pyridin-3-yl)acetamide]
21 | < 300 nM | < 300 nM | CCn1cc2ncc(N[C@@H](C)c3cc(NC(=O)Cc4cc(Cl)ccn4)ccc3C)nc2n1 [Compound 677, (6)-2-(4-chloropyridin-2-yl)-N-(3-(1-((2-ethyl-2H-pyrazolo[3,4-b]pyrazin-6-yl)amino)ethyl)-4-methylphenyl)acetamide]
22 | < 300 nM | 300 to 1000 nM | CCn1cc2ncc(N[C@@H](C)c3cccc(NC(=O)Cc4cccc(F)c4)c3)nc2n1 [Compound 625, (S)-N-(3-(1-((2-ethyl-2H-pyrazolo[3,4-b]pyrazin-6-yl)amino)ethyl)phenyl)-2-(3-fluorophenyl)acetamide]
23 | 300 to 1000 nM | ≥ 1000 nM | CCn1cc2ncc(N[C@@H](C)c3cccc(NC(=O)Nc4ccc(NC)nc4)c3)nc2n1 [Compound 738, (S)-1-(3-(1-((2-ethyl-2H-pyrazolo[3,4-b]pyrazin-6-yl)amino)ethyl)phenyl)-3-(6-(methylamino)pyridin-3-yl)urea]
24 | < 300 nM | < 300 nM | CCn1cc2ncc(N[C@@H](C)c3cccc(NC(=O)Nc4ccc(C5CC5)nc4)c3)nc2n1 [Compound 737, (S)-1-(6-cyclopropylpyridin-3-yl)-3-(3-(1-((2-ethyl-2H-pyrazolo[3,4-b]pyrazin-6-yl)amino)ethyl)phenyl)urea]
25 | < 300 nM | < 300 nM | CCOc1ccc(C(=O)Nc2cccc([C@H](C)Nc3cnc4[nH]cc(C)c4n3)c2)cn1 [Compound 570, (S)-6-ethoxy-N-(3-(1-((7-methyl-5H-pyrrolo[2,3-b]pyrazin-2-yl)amino)ethyl)phenyl)nicotinamide]
26 | < 300 nM | < 300 nM | C[C@H](Nc1cnc2[nH]cc(-c3cnn(C)c3)c2n1)c1cccc(NC(=O)c2cnn(C3CC3)c2)c1 [Compound 581, (S)-1-cyclopropyl-N-(3-(1-((7-(1-methyl-1H-pyrazol-4-yl)-5H-pyrrolo[2,3-b]pyrazin-2-yl)amino)ethyl)phenyl)-1H-pyrazole-4-carboxamide]
27 | < 300 nM | < 300 nM | C[C@H](Nc1cnc2[nH]cc(-c3cnn(C)c3)c2n1)c1cccc(NC(=O)c2ccc(N3CCCC3)nc2)c1 [Compound 585, (S)-N-(3-(1-((7-(1-methyl-1H-pyrazol-4-yl)-5H-pyrrolo[2,3-b]pyrazin-2-yl)amino)ethyl)phenyl)-6-(pyrrolidin-1-yl) nicotinamide]
28 | < 300 nM | ≥ 1000 nM | CCn1cc2ncc(N[C@@H](C)c3cc(NC(=O)Cc4ccc(C(C)C)cn4)ccc3C)nc2n1 [Compound 710, (S)-N-(3-(1-((2-ethyl-2H-pyrazolo[3,4-b]pyrazin-6-yl)amino)ethyl)-4-methylphenyl)-2-(5-isopropylpyridin-2-yl) acetamide]
29 | < 300 nM | < 300 nM | Cc1n[nH]c2ncc(N[C@@H](C)c3cccc(NC(=O)c4cnc(C5CC5)s4)c3)nc12 [Compound 541, (S)-2-cyclopropyl-N-(3-(1-((3-methyl-1H-pyrazolo[3,4-b]pyrazin-5-yl)amino)ethyl)phenyl)thiazole-5-carboxamide]
